In article PMC13309125, “Differential regulation of hepatic macrophage fate by Chi3l1 in metabolic dysfunction-associated steatotic liver disease” (eLife, 2026):

Biological target: T1, Chi3l1 (chitinase 3-like 1, YKL-40) (Mus musculus, UniProt Q61362)
T1 construct: recombinant mouse Chi3l1 (rChi3l1), labelled with His-Tag Labeling Kit RED-tris-NTA
Experiment: microscale thermophoresis (MST); supported by biotin-glucose pull-down competed by unlabeled glucose
Assay type: binding

T1 sequence (Q61362 30-389): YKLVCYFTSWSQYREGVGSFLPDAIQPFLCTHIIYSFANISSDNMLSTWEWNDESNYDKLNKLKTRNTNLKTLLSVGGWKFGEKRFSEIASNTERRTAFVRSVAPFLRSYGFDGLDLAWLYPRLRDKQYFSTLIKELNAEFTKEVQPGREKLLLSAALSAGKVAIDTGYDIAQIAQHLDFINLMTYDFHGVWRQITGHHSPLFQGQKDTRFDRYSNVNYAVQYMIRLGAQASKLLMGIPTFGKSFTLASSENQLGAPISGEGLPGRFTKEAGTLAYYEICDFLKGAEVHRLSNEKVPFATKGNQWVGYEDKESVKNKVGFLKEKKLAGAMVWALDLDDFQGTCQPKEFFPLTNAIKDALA

Kd: 4.95 mM
SMILES: OC[C@H]1OC(O)[C@H](O)[C@@H](O)[C@@H]1O (stereo partly shown) [glucose]
